Measured values as given in patent EP0528699B1, “Saishin N derivatives, process for their preparation and anti-ulcer agents containing them” (TOKYO TANABE COMPANY LIMITED, priority 1991, dated 1993).
Structures can show the parent of a compound that is named as a salt. Where two headings read alike, the source gives them in different places. Marks after values point to notes of the source that are not given here.

What was measured:
[1] = tested on: Hydrochloric acid-Ethanol-Induced Ulcers; test: Hydrochloric acid-Ethanol-Induced Ulcers; type: in vivo, male Wister rats; conditions: Rattus norvegicus, intraduodenal, read-out: Inhibition ratio(%); for inhibition in vivo at 10 mg/kg: dose 10 mg/kg intraduodenally one hour before hydrochloric acid - 60% ethanol
Procedure: (§1) Experiments on Hydrochloric acid-Ethanol-Induced Ulcers, Aspirin-Induced Ulcers, Water-Immersion stress-Induced Ulcers, Shay's Ulcers and Serotonin-Induced Ulcers were carried out using male Wister rats weighing about 200g in groups of six. Experiments on Ischemia-Reperfusion -Induced Gastric Lesions were carried out using male SD rats weighing about 250g in groups of six. Other than for the tests on Ischemia-Reperfusion-Induced Gastric Lesions Models, the test compounds were prepared by mixing thoroughly with polyethyleneglycol and 0.5% sodium carboxymethyl cellulose solution and emulsifying vigorously. Activities against respective ulcer models were evaluated by an inhibiting ratio obtained by dividing the difference between the ulceration indexes of the non-administered group and the test compound group by the non-administered group.
To each rat which had been fasted for 24 hours was orally administered 0.5ml of a mixed solution of 150 mM hydrochloric acid - 60% ethanol per 100g of weight. Each rat was slaughtered after one hour, a length of ulcer formed at the fundus gland area of stomach was measured and ulceration index was calculated based on the length. The test compound was administered intraduodenally one hour or three hours before the administration of mixed solution of hydrochloric acid - 60% ethanol.

Aspirin-Induced Ulcers = test: Aspirin-Induced Ulcers; type: in vivo, male Wister rats; conditions: Rattus norvegicus, 9 h, 5 minutes before 150 mg/kg of aspirin orally, read-out: Aspirin, inhibiting ratio; for inhibition in vivo at 50 mg/kg: dose 50 mg/kg intraduodenally at pylorus ligation
Procedure: as §1
In each rat which had been fasted for 24 hours, the pyloric end of the stomach was ligated, and simultaneously the test compound was administered intraduodenally, and after 5 minutes, 150 mg/kg of aspirin was administered orally, respectively. After 9 hours from ligation, each rat was slaughtered, a length of ulcer formed at the fundus gland area of stomach was measured and ulceration index was calculated based on the length.
(§2) The results of Aspirin-Induced Ulcers, Water-immersion stress-Induced Ulcers, Shay's Ulcers, Serotonin-induced Ulcers and Ischemia-Reperfusion-Induced Gastric lesions are shown in Table 3.

[2] = tested on: Water-Immersion stress-Induced Ulcers; test: Water-Immersion stress-Induced Ulcers; type: in vivo, male Wister rats; conditions: Rattus norvegicus, po, 10 h, read-out: Water-Immersion Stress, inhibiting ratio; for inhibition in vivo at 50 mg/kg: dose 50 mg/kg orally 10 minutes before the exposure to stress; for inhibition in vivo at 20 mg/kg: dose 20 mg/kg orally 10 minutes before the exposure to stress
Procedure: as §1
Each rat which had been fasted for 15 hours was immobilized in a stress cage and immersed to chest depth in a water bath at 21°C. Each rat was slaughtered after 10 hours, a length of ulcer formed at the fundus gland area of stomach was measured and ulceration index was calculated based on the length. The test compound was administered orally 10 minutes before the exposure to stress.
as §2

Shay's Ulcers = test: Shay's Ulcers; type: in vivo, male Wister rats; conditions: Rattus norvegicus, intraduodenal, 14 h, read-out: Shay, inhibiting ratio; for inhibition in vivo at 50 mg/kg: dose 50 mg/kg intraduodenally immediately after the ligation; for inhibition in vivo at 300 mg/kg: dose 300 mg/kg intraduodenally immediately after the ligation
Procedure: as §1
In each rat which had been fasted for 48 hours, the pyloric end of stomach was ligated, and each was kept without giving any food or water for 14 hours. Each rat was then slaughtered, and area of ulcer formed in the forestomach was measured and ulceration inded was calculated based on the area. The test compound was administered intraduodenally immediately after the ligation.
as §2

Serotonin-Induced Ulcers = test: Serotonin-Induced Ulcers; type: in vivo, male Wister rats; conditions: Rattus norvegicus, 4.5 h, read-out: Serotonin, inhibiting ratio; for inhibition in vivo at 20 mg/kg: dose 20 mg/kg intraduodenally 30 minutes before Serotonin creatinine sulfate 30 mg/kg subcutaneously; for inhibition in vivo at 50 mg/kg: dose 50 mg/kg intraduodenally 30 minutes before Serotonin creatinine sulfate 30 mg/kg subcutaneously
Procedure: as §1
To each rat which had been fasted for 24 hours, 30 mg/kg of a solution of serotonin creatinine sulfate in a saline solution was administered subcutaneously. Each rat was then slaughtered after 4 and a half hours and area of gastric mucosal lesion formed facing the center line of greater curvature of the corpus ventriculi of stomach was measured and ulceration index was calculated based on the area. The test compound was administered intraduodenally 30 minutes before the administration of the Serotonin creatinine sulfate.
as §2

[3] = tested on: Ischemia-Reperfusion-Induced Gastric Lesions; test: Ischemia-Reperfusion-Induced Gastric Lesions; type: in vivo, male SD rats; conditions: dose 40 mg/kg in dimethylsulfoxide from the caudal artery 30 minutes before beginning collection of the blood
Procedure: as §1
Each rat which had been fasted for 24 hours was anesthetized intraperitoneally with Nembutal and immobilized on a constant temperature pad in a dorsal position. After tracheotomy was performed, blood pressure was measured via a transducer for blood pressure from a cannula inserted in right carotid. The abdomen was opened, and the gastroesophageal junction was ligated. A tube was then passed through the duodenostomy into the stomach and the gastric lumen was lavaged with warm saline. 1 ml of 0.1N hydrochloric acid per 100g body weight was instilled into the stomach via the gastric tube and the pylorus was ligated. When the blood pressure became stable, 2% of weight (w/w) of the blood was collected from a cannula inserted in the left carotid into a syringe containing a heparin added saline solution. After 20 minutes, the collecting blood was retransfused and each rat was left to stand for 20 minutes, and slaughtered and the area of gastric mucosal lesions was measured and ulceration index was calculated based on the area. The test compound was dissolved in dimethylsulfoxide and administered at a dose of 40 mg/kg from the caudal artery 30 minutes before beginning collection of the blood.
as §2

[4] = 3 h, Table 1, dose 20 mg/kg intraduodenally three hours before hydrochloric acid - 60% ethanol

Compound: CC1=CC(OC(=O)c2ccccc2)C(O)C(C)(C)CC1=O (centres unmarked) [AU190, 4-benzoyloxy-5-hydroxy-2,6,6-trimethyl-2-cyclohepten-1-one]
- inhibition in vivo at 20 mg/kg [1, 4]: 66%
- inhibition in vivo at 50 mg/kg (Aspirin-Induced Ulcers): 55%
- inhibition in vivo at 50 mg/kg [2]: 45%
- inhibition in vivo at 50 mg/kg (Shay's Ulcers): 55%
- inhibition in vivo at 20 mg/kg (Serotonin-Induced Ulcers): 69%

Compound: COc1cc(C=CC(=O)OC2C(O)C=C(C)C(=O)CC2(C)C)ccc1O (centres unmarked) [AU414, 4-hydroxy-5-(4-hydroxy-3-methoxycinnamoyloxy)-2,6,6-trimethyl-2-cyclohepten-1-one]
- inhibition in vivo at 20 mg/kg [1, 4]: 89%
- inhibition in vivo at 20 mg/kg [2]: 41%

Compound: COC1C=C(C)C(=O)CC(C)(C)C1O (centres unmarked) [AU154, 5-hydroxy-4-methoxy-2,6,6-trimethyl-2-cyclohepten-1-one]
- inhibition in vivo at 10 mg/kg ([1]; 1 h, Table 2): 67%
- inhibition in vivo at 20 mg/kg [1, 4]: 21%
- inhibition in vivo at 50 mg/kg [2]: 17%
- inhibition in vivo at 50 mg/kg (Shay's Ulcers): 22%
- inhibition in vivo at 20 mg/kg (Serotonin-Induced Ulcers): 46%

Compound: CC1=CC(O)C(OC(=O)C=Cc2ccccc2)C(C)(C)CC1=O (centres unmarked) [AU205, 5-cinnamoyloxy-4-hydroxy-2,6,6-trimethyl-2-cyclohepten-1-one]
- inhibition in vivo at 20 mg/kg [1, 4]: 83%
- inhibition in vivo at 50 mg/kg (Aspirin-Induced Ulcers): 53%
- inhibition in vivo at 20 mg/kg [2]: 42%
- inhibition in vivo at 50 mg/kg (Shay's Ulcers): 50%
- inhibition in vivo at 20 mg/kg (Serotonin-Induced Ulcers): 80%

Compound: CC1=CC(OC(=O)c2ccc(N)cc2)C2OC1(OCCO)CC2(C)C (centres unmarked) [AU249, 4-(4-aminobenzoyloxy)-1-(2-hydroxyethoxy)-2,6,6-trimethyl-8-oxabicyclo [3.2.1] oct-2-ene]
- inhibition in vivo at 20 mg/kg [1, 4]: 65%
- inhibition in vivo at 20 mg/kg [2]: 33%

Compound: NC[C@H]1CC[C@H](C(=O)Oc2ccc(CCC(=O)O)cc2)CC1 [Cetraxatehydrochloride, reference compound]
- inhibition in vivo at 300 mg/kg (Aspirin-Induced Ulcers; dose 300 mg/kg intraduodenally at pylorus ligation): 33%
- inhibition in vivo at 300 mg/kg ([2]; dose 300 mg/kg orally 10 minutes before the exposure to stress): 45%
- inhibition in vivo at 300 mg/kg (Shay's Ulcers): 11%

Compound: CC(=O)OC1CC(C)C(=O)CC(C)(C)C1OC(C)=O (stereo not drawn) [AU117, 2,4-cis-4,5-diacetoxy-2,6,6-trimethylcycloheptan-1-one]
- inhibition in vivo at 20 mg/kg [1, 4]: 62%
- inhibition in vivo at 20 mg/kg (Serotonin-Induced Ulcers): 60%

Compound: COC12CC(C)(C)C(O1)C(O)CC2C (stereo not drawn) [AU105B, 2,4-cis-1-methoxy-2,6.6-trimethyl-8-oxabicyclo [3.2.1] octan-4-ol]
- inhibition in vivo at 10 mg/kg ([1]; 1 h, Table 2): 86%
- inhibition in vivo at 20 mg/kg [1, 4]: 63%
- inhibition in vivo at 20 mg/kg [2]: 65%
- inhibition in vivo at 50 mg/kg (Shay's Ulcers): 44%
- inhibition in vivo at 20 mg/kg (Serotonin-Induced Ulcers): 80%
- Ischemia-Reperfusion, inhibiting ratio [3]: 52(40)*

Compound: CC1=CC(O)C(O)C(C)(C)CC1=O (centres unmarked) [Saishin N, 4,5-dihydroxy-2,6,6-trimethyl-2-cycloheptene-1-one]
- inhibition in vivo at 10 mg/kg ([1]; 1 h, Table 2): 35%
- inhibition in vivo at 20 mg/kg ([1]; 1 h, Table 2, dose 20 mg/kg intraduodenally one hour before hydrochloric acid - 60% ethanol): 88%
- inhibition in vivo at 20 mg/kg [1, 4]: 15%
- inhibition in vivo at 50 mg/kg ([1]; 3 h, Table 1, dose 50mg/kg intraduodenally three hours before hydrochloric acid - 60% ethanol): 83%
- inhibition in vivo at 50 mg/kg (Aspirin-Induced Ulcers): 52%
- inhibition in vivo at 100 mg/kg (Aspirin-Induced Ulcers; dose 100 mg/kg intraduodenally at pylorus ligation): 60%
- inhibition in vivo at 50 mg/kg [2]: 49%
- inhibition in vivo at 100 mg/kg ([2]; dose 100 mg/kg orally 10 minutes before the exposure to stress): 62%
- inhibition in vivo at 100 mg/kg (Shay's Ulcers; dose 100 mg/kg intraduodenally immediately after the ligation): 49%
- inhibition in vivo at 300 mg/kg (Shay's Ulcers): 58%
- inhibition in vivo at 20 mg/kg (Serotonin-Induced Ulcers): 13%
- inhibition in vivo at 50 mg/kg (Serotonin-Induced Ulcers): 36%

Compound: CC1=CC(OC(=O)C=Cc2ccc(N)cc2)C(O)C(C)(C)CC1=O (centres unmarked) [AU401, 4-(4-aminocinnamoyloxy)-5-hydroxy-2,6,6-trimethyl-2-cyclohepten-1-one]
- inhibition in vivo at 20 mg/kg [1, 4]: 49%
- inhibition in vivo at 20 mg/kg (Serotonin-Induced Ulcers): 68%

Compound: CC1=CC(OC(=O)c2cccn2C)C(O)C(C)(C)CC1=O (centres unmarked) [AU501, 4-(1-methyl-2-pyrrolylcarbonyloxy)-5-hydroxy-2,6,6-trimethyl-2-cyclohepten-1-one]
- inhibition in vivo at 20 mg/kg [1, 4]: 56%
- inhibition in vivo at 50 mg/kg (Aspirin-Induced Ulcers): 30%
- inhibition in vivo at 50 mg/kg [2]: 22%
- inhibition in vivo at 50 mg/kg (Serotonin-Induced Ulcers): 55%
- Ischemia-Reperfusion, inhibiting ratio [3]: 77(40)**

Compound: COC1C(O)C=C(C)C(=O)CC1(C)C (centres unmarked) [AU222, 4-hydroxy-5-methoxy-2,6,6-trimethyl-2-cyclohepten-1-one]
- inhibition in vivo at 20 mg/kg [1, 4]: 54%
- inhibition in vivo at 50 mg/kg (Aspirin-Induced Ulcers): 28%
- inhibition in vivo at 20 mg/kg [2]: 34%
- inhibition in vivo at 50 mg/kg (Shay's Ulcers): 58%
- inhibition in vivo at 20 mg/kg (Serotonin-Induced Ulcers): 84%

Compound: COC1C=C(C)C(=O)CC(C)(C)C1OC(=O)c1ccc([N+](=O)[O-])cc1[N+](=O)[O-] (centres unmarked) [AU407, 5-(2,4-dinitrobenzoyloxy)-4-methoxy-2,6,6-trimethyl-2-cyclohepten-1-one]
- inhibition in vivo at 20 mg/kg [1, 4]: 82%
- inhibition in vivo at 50 mg/kg (Aspirin-Induced Ulcers): 71%
- inhibition in vivo at 50 mg/kg [2]: 50%
- inhibition in vivo at 20 mg/kg (Serotonin-Induced Ulcers): 41%

Compound: COc1cc(C=CC(=O)OC2C=C(C)C(=O)CC(C)(C)C2O)ccc1O (centres unmarked) [AU416, 5-hydroxy-4-(4-hydroxy-3-methoxycinnamoyloxy)-2,6,6-trimethyl-2-cyclohepten-1-one]
- inhibition in vivo at 20 mg/kg [1, 4]: 72%

Compound: CC(=O)OC1C(OC(=O)c2ccccc2)C=C(C)C(=O)CC1(C)C (centres unmarked) [AU193, 5-acetoxy-4-benzoyloxy-2,6,6-trimethyl-2-cyclohepten-1-one]
- inhibition in vivo at 20 mg/kg [1, 4]: 60%

Compound: CC1=CC(O)C(OC(=O)c2cccc(N)c2)C(C)(C)CC1=O (centres unmarked) [AU209, 5-(3-aminobenzoyloxy)-4-hydroxy-2,6,6-trimethyl-2-cyclohepten-1-one]
- inhibition in vivo at 20 mg/kg [1, 4]: 38%

Compound: CC1=CC(O)C(OC(=O)c2ccccc2)C(C)(C)CC1=O (centres unmarked) [AU183, 5-benzoyloxy-4-hydroxy-2,6,6-trimethyl-2-cyclohepten-1-one]
- inhibition in vivo at 20 mg/kg [1, 4]: 73%

Compound: CC1=CC(OC(=O)c2ccc(N)cc2N)C(O)C(C)(C)CC1=O (centres unmarked) [AU242, 4-(2,4-diaminobenzoyloxy)-5-hydroxy-2,6,6-trimethyl-2-cyclohepten-1-one]
- inhibition in vivo at 20 mg/kg [1, 4]: 60%

Compound: CC1CC(O)C2OC1(OC(=O)c1ccc(N)cc1)CC2(C)C (stereo not drawn) [AU251, 2,4-cis-1-(4-aminobenzoyloxy)-2,6,6-trimethyl-8-oxabicyclo [3.2.1] octan-4-ol]
- inhibition in vivo at 20 mg/kg [1, 4]: 30%

Compound: COC1C=C(C)C(=O)CC(C)(C)C1OC(=O)Cc1csc(N)n1 (centres unmarked) [AU243, 5-(2-aminothiazol-4-yl) acetoxy-4-methoxy-2,6,6-trimethyl-2-cyclohepten-1-one]
- inhibition in vivo at 20 mg/kg [1, 4]: 29%
